Measured values published in patent US10888092B2, “Ether amines for enhanced sporicidal performance” (Ecolab USA Inc., priority 2016, dated 2021).
Marks after values point to notes of the source that are not given here.

Experiments:
bacterial spores = assay: Fabric swatches (ASTM E2274-09 protocol), simultaneous treatment (Example 5); format: cell-based; details: TABLE 7, exposure 10 minutes
Description: (§1) Various ether amines were tested for their efficiency in eradicating bacterial spores from fabric swatches. The fabric swatches were treated according to ASTM protocol for evaluating laundry sanitizers and disinfectants (ASTM E2274-09). The ASTM protocol provides more realistic conditions for laundering textiles, where the tested textiles are imbedded within a bundle of fabrics to mimic the ability of the composition to penetrate the fabric with less exposure to the wash solution.
Three different ether amine solutions were tested: DA-1214 (octyl/decyloxypropyl-1,3-diaminopropane), DA-1618 (dodecylketradecyloxypropyl-1,3-diaminopropane), and PA-14 (isodecyloxypropyl amine). Part I and Part II were both added together at the start of the experiment for a combined exposure time of 10 minutes. The solutions were made into deionized water as described in Example 1, with the pH adjusted to 9.0 by glycolic acid. However, PA-14 was already neutralized to pH 7 with sodium acetate. The log reduction of spores was measured in the wash solution and on the fabric swatch. The reduction of spores was compared to number of spores in the baseline treatment (water only).

spores [1] = assay: Peracid comparison, ASTM test on fabric swatches (Example 7); format: cell-based; details: TABLE 9; peracid 200 ppm alone; 10 min at 50° C.
Description: as §1
The use of different peracids was tested. Fabric swatches were treated using the ASTM test described in Example 5. Part I was prepared with 100 ppm ether amine (DA-1618). Part II was prepared with 200 ppm of peroxyacetic acid (“POAA”) or peroxyoctanoic acid (“POOA”). When both Part I and Part II were used, the chemicals were added simultaneously. The exposure time was 10 min at 50° C.

C. Diff. AATCC 43598 [2] = assay: Glass surface, room temperature (Example 3); format: cell-based, Clostridium difficile; details: TABLE 5, room temperature (approximately 23° C.), ether amine 0 ppm 10 min, peracid 1000 ppm 5 min
Description: (§2) Cotton fabric swatches (5 mm×5 mm) were inoculated with C. Diff. AATCC 43598 at 35° C. for 48 hours. After inoculation, the swatches were treated with a first solution comprising part I of the composition at 50° C. for a first exposure time; removed from the first solution with sterile forceps and immediately transferred into a second solution comprising part II of the composition for a second exposure time. In comparative treatments, the solutions included only water. After treatment, the number of surviving spores was evaluated, and the log reduction of spores was compared to the comparative treatment (water only).
(§3) The treatment described above for Example 1 was applied to glass squares (5 mm×5 mm) in a first part of the experiment, where the first exposure time was 10 minutes (part I) and the second exposure time was 5 minutes (part II). In a second part of the experiment, the ether amine and peracid were mixed together prior to treatment, and the exposure time was 15 minutes. Results of the first part of the experiment are shown in TABLE 4A, and of the second part of the experiment in TABLE 4B.
The treatment described in Example 2 was repeated at room temperature (“RT,” approximately 23° C.). Part I was prepared with ether amine DA-1214 and Part II with peroxyacetic acid. The exposure times were 10 min for Part I and 5 min for Part II.

spores [3] = assay: Fabric swatches (ASTM E2274), simultaneous treatment, hard water (Example 6); format: cell-based; details: TABLE 8; 500 ppm synthetic hard water, pH 10.5 prior to peracid addition; ether amine 0 ppm, peracid 200 ppm; 10 minutes
Description: as §1
Treatment of fabric swatches was tested in pH-adjusted hard water. The wash solution contained 500 ppm synthetic hard water, and the pH was adjusted to 10.5 with NaOH prior to peracid addition. After the addition of the peracid, pH of the wash solution was between 7-8. DA-1214 was used as the ether amine and peracetic acid as the peracid.
The log reduction of spores was measured in the wash solution and on the fabric swatch. The reduction of spores was compared to number of spores in the baseline treatment (water only). The combined treatment time was 10 minutes.

C. Diff. AATCC 43598 [4] = assay: Fabric swatches, consecutive treatment, spore log reduction (Example 1); format: cell-based, Clostridium difficile; details: ether amine 0 ppm 10 min, 50° C.
Description: Aqueous solutions of ether amine (Part I) and peracid (Part II) were prepared. Ether amine (octyl/decyloxypropyl-1,3-diaminopropane) solution (Part I) was prepared in deionized water and the pH was adjust to 9.0 using glycolic acid. TOMAMINE DA1214 was used as the ether amine. TOMAMINE DA1214 contains about 50-60% by weight of 1,3-Propanediamine, N-[3-(octylocy)propyl] and about 35-40% by weight of 1,3-Propanediamine, N-[3-(decylocy)propyl], and is available from Air Products and Chemicals, Inc., in Allentown, Pa. Peracid (peracetic acid) solution (Part II) was prepared from TSUNAMI° 100 (15 peracetic acid), available from Ecolab Inc., in St Paul, Minn.
as §2
In Example 1, the first exposure time was 10 minutes (Part I) and the second exposure time was 5 minutes (Part II).

C. Diff. AATCC 43598 [5] = assay: Fabric swatches, consecutive vs. simultaneous treatment (Example 4); format: cell-based, Clostridium difficile; details: TABLE 6, ether amine 0 ppm 10 min, peracid 300 ppm 5 minutes
Description: as §2
Consecutive and simultaneous treatment with low concentration (100 ppm) of ether amine and peracetic acid was tested on fabric squares. The fabric squares were treated as in Example 1 with treatment times of 10 min (part I) and 5 minutes (part II), except with the simultaneous treatment, where ether amine and peracid were mixed prior to treatment and the exposure time was 5 minutes.

C. Diff. AATCC 43598 [6] = assay: Glass surface, consecutive treatment (Example 2); format: cell-based, Clostridium difficile; details: TABLE 4A, glass squares, ether amine 0 ppm 10 min
Description: as §2, §3

[7] = ether amine 100 ppm, peracid 0 ppm
[8] = ether amine 0 ppm, peracid 200 ppm
[9] = TABLE 3A, then peracid 300 ppm 5 min
[10] = TABLE 3A, then peracid 500 ppm 5 min
[11] = TABLE 3C, then peracid 300 ppm 5 min

For CC(C)CCCCCCCOCCCN [PA-14, isodecyloxypropyl amine], the “Fabric Swatch Log Reduction” value (bacterial spores; [7]) was 0.07 and the “Wash Solution Log Reduction” value (bacterial spores; [7]) was 0.17.

CCCCCCCC(=O)OO [POOA, peroxyoctanoic acid] was tested, and the Carrier log reduction (spores [1]) was 5.35 and the “Wash Solution Log Reduction” value (spores [1]) was 6.00*.

In the case of CC(=O)OO [peracid, peracetic acid], the “Fabric Swatch Log Reduction” value (bacterial spores; [8]) is reported as 2.65, the “Wash Solution Log Reduction” value (bacterial spores; [8]) is reported as 5.33 and the “Average Log” value (C. Diff. AATCC 43598 [2]) is reported as over 5.48. For the same compound, the “Average Survivors” value (C. Diff. AATCC 43598 [2]) was >300 × 10^3, the “Log Reduction” value (C. Diff. AATCC 43598 [2]) was under 1.32 and the “Fabric Swatch Log Reduction” value (spores [3]) was 3.01. The “Wash Solution Log Reduction” value (spores [3]) was 5.30, the “Average Log” value (C. Diff. AATCC 43598 [4]; [9]) was 5.36 and the “Average Survivors” value (C. Diff. AATCC 43598 [4]; [9]) was 2.3 × 10^5. The “Log Reduction” value (C. Diff. AATCC 43598 [4]; [9]) was 1.02, the “Average Log” value (C. Diff. AATCC 43598 [4]; [10]) was 3.23 and the “Average Survivors” value (C. Diff. AATCC 43598 [4]; [10]) was 1.7 × 10^3. For the same compound, the “Log Reduction” value (C. Diff. AATCC 43598 [4]; [10]) was 3.15, the “Average Log” value (C. Diff. AATCC 43598 [4]; [11]) was 5.04 and the “Average Survivors” value (C. Diff. AATCC 43598 [4]; [11]) was 1.1 × 10^5. The “Log Reduction” value (C. Diff. AATCC 43598 [4]; [11]) was 0.69, the “Log Reduction” value (C. Diff. AATCC 43598 [5]) was 0.85 and the “Average Log” value (C. Diff. AATCC 43598 [6]; then peracid 300 ppm 5 min) was 5.30. The “Average Survivors” value (C. Diff. AATCC 43598 [6]; then peracid 300 ppm 5 min) was 2.0 × 10^5, the “Log Reduction” value (C. Diff. AATCC 43598 [6]; then peracid 300 ppm 5 min) was 1.36 and the “Average Log” value (C. Diff. AATCC 43598 [6]; then peracid 500 ppm 5 min) was 3.38. For the same compound, the “Average Survivors” value (C. Diff. AATCC 43598 [6]; then peracid 500 ppm 5 min) was 2.4 × 10^3, the “Log Reduction” value (C. Diff. AATCC 43598 [6]; then peracid 500 ppm 5 min) was 3.28 and the Carrier log reduction (spores [1]) was 1.78. For the same compound, the “Wash Solution Log Reduction” value (spores [1]) was 4.40.
